Assay results published in patent US10653717B2, “Antibiotic compositions” (priority 2016, dated 2020).

What was measured:
ECL-2: E. cloacae 2301# [1] = assay: MIC of silver with antibiotics on clinical isolated MDR Gram-negative bacteria; type: cell-based, Enterobacter cloacae; settings: antibiotic 4 μM
Description: (§1) There are five clinically most difficult-to-treat MDR Gram-negative pathogen species: Klebsiella pneumonia, Acinetobacter baumannii, Pseudomonas aeruginosa, Enterobacter cloacae and Escherichia coli. One strain from each species was isolated, and overnight cultures were diluted 1:1000 times in LB medium, and treated with serial concentrations of Ag^+ and antibiotics in combinations for 24 h (Table 10).
(§2) Five clinical isolated MDR Gram-negative strains were grown until an OD600 nm of 0.4, and were diluted 1:1,000 into 100 μl LB medium in 96 micro-well plates. […] The cultures treated with the same serial dilutions of 100 μl ebselen and silver nitrate were used as the positive control.

[2] = test system: KP-2: K. pneumonia subsp. pneumonia 0322#; assay: as above; type: cell-based, Klebsiella pneumonia; settings: antibiotic 4 μM
Description: as §1, §2

[3] = test system: ECO-1: Escherichia coli 1139#; assay: as above; type: cell-based; settings: antibiotic 4 μM
Description: as §1, §2

[4] = test system: PA-1: Pseudomonas aeruginosa 1298#; assay: as above; type: cell-based; settings: antibiotic 4 μM
Description: as §1, §2

[5] = test system: AB-1: Acinetobacter baumannii H#; assay: as above; type: cell-based; settings: antibiotic 4 μM
Description: as §1, §2

[6] = test system: ECO-1: Escherichia coli 1139#; assay: Drug sensitivity of clinical isolated strain; type: cell-based; also: key: R: resistant; S: sensitive
ECO-3: E. coli ZY-1 = assay: Drug sensitivity of clinical isolated strain; type: cell-based, Escherichia coli; also: key: R: resistant; S: sensitive
[7] = test system: KP-2: K. pneumonia subsp. pneumonia 0322#; assay: Drug sensitivity of clinical isolated strain; type: cell-based, Klebsiella pneumonia; also: key: R: resistant; S: sensitive
[8] = test system: PA-1: Pseudomonas aeruginose 1298#; assay: Drug sensitivity of clinical isolated strain; type: cell-based, Pseudomonas aeruginosa; also: key: R: resistant; S: sensitive
ECO-2: E. coli 2219# = assay: Drug sensitivity of clinical isolated strain; type: cell-based, Escherichia coli; settings: ECO-2 (Table 3); also: key: R: resistant; S: sensitive
[9] = test system: ECL-1: Enterobacter cloacae 0431#; assay: Drug sensitivity of clinical isolated strain; type: cell-based; settings: ECL-1 (Table 3); also: key: R: resistant; S: sensitive
[10] = test system: AB-1: Acinetobacter baumannii H#; assay: Drug sensitivity of clinical isolated strain; type: cell-based; also: key: R: resistant; S: sensitive
ECL-2: E. cloacae 2301# [11] = assay: Drug sensitivity of clinical isolated strain; type: cell-based, Enterobacter cloacae; also: key: R: resistant; S: sensitive
[12] = test system: KP-1: Klebsiella pneumonia subsp. pneumonia 13#; assay: Drug sensitivity of clinical isolated strain; type: cell-based; settings: KP-1 (Table 3); also: key: R: resistant; S: sensitive
AB-2: A. baumannii 0361# = assay: Drug sensitivity of clinical isolated strain; type: cell-based, Acinetobacter baumannii; settings: AB-2 (Table 3); also: key: R: resistant; S: sensitive
[13] = test system: PA-2: P. aeruginose 0009#; assay: Drug sensitivity of clinical isolated strain; type: cell-based, Pseudomonas aeruginosa; settings: PA-2 (Table 3); also: key: R: resistant; S: sensitive
wild type E. coli DHB4 = assay: MIC of nine antibiotics and silver in combinations on E. coli DHB4; type: cell-based, Escherichia coli; settings: 24 h
Description: E. coli DHB4 overnight cultures were diluted 1:1000 times in Luria Bertani (LB) medium, and treated with serial dilutions of ionic silver (Ag^+) as a nitrate salt and 9 antibiotics in combinations, separately, for 24 h.
E. coli DHB4 from frozen stock were grown overnight at 37° C., 400 rpm. The overnight culture was diluted 1:100 with 5 ml of LB medium in 15 ml tubes and incubated at 37° C. at 400 rpm. Cells were grown until an OD600 nm of 0.4 and were used for antibiotic treatment. Briefly, cells were diluted 1:1,000 into 100 μl of LB medium in 96 micro-well plates. […] The minimum inhibition concentration (MIC) was determined as the lowest concentration of drugs that inhibited 90% of growth compared to the untreated cells after 24 h culture at 37° C. The cultures treated with the same serial dilutions of 100 μl ebselen and silver nitrate were used as the positive control.

E. coli = assay: Degree of synergy, Bliss Independence Model; type: cell-based, Escherichia coli; settings: 5 μM AgNO3 with 80 μM antibiotic; 1 and 4 h
GSH = GSH amount in treated E. coli cell extracts, GR-coupled DTNB reduction; type: cell-based, Escherichia coli; settings: 5 μM Ag^+ and 80 μM antibiotic; 10 min; compared with antibiotics themselves

| Compound | MIC of silver in the presence of different antibiotics [3] [µM] | MIC of silver in the presence of different antibiotics [4] [µM] | MIC of silver in the presence of different antibiotics [5] [µM] | Drug sensitivity ([6]; ECO-1 (Table 3)) | Drug sensitivity ([6]; ECO-1 (table of Example 3)) | Drug sensitivity (ECO-3: E. coli ZY-1; E. coli ZY-1 (Table 7)) | Drug sensitivity (ECO-3: E. coli ZY-1; ECO-3 (Table 3)) | Drug sensitivity ([7]; KP-2 (Table 3)) | Drug sensitivity ([7]; KP-2 (table of Example 3)) | Drug sensitivity ([8]; PA-1 (Table 3)) | Drug sensitivity ([8]; PA-1 (table of Example 3)) | Drug sensitivity (ECO-2: E. coli 2219#) | Drug sensitivity [9] | Drug sensitivity ([10]; AB-1 (Table 3)) | Drug sensitivity ([10]; AB-1 (table of Example 3)) | Drug sensitivity (ECL-2: E. cloacae 2301# [11]; ECL-2 (Table 3)) | Drug sensitivity (ECL-2: E. cloacae 2301# [11]; ECL-2 (table of Example 3)) | Drug sensitivity [12] | Drug sensitivity (AB-2: A. baumannii 0361#) | Drug sensitivity [13] | other results |
| --- | --- | --- | --- | --- | --- | --- | --- | --- | --- | --- | --- | --- | --- | --- | --- | --- | --- | --- | --- | --- | --- |
| CN[C@@H]1[C@@H](O)[C@@H](O[C@@H]2[C@@H](O)[C@H](O[C@H]3O[C@H]([C@@H](C)O)[C@@H](O)[C@H](O)[C@H]3N)[C@@H](N)C[C@H]2N)OC[C@]1(C)O [Geneticin] | 40 | 80 | 80 | – | – | – | – | – | – | – | – | – | – | – | – | – | – | – | – | – | MIC of silver in the presence of different antibiotics (ECL-2: E. cloacae 2301# [1]): 160 µM; MIC of silver in the presence of different antibiotics [2]: 160 µM |
| NC[C@H]1O[C@H](O[C@H]2[C@H](O)[C@@H](O[C@H]3O[C@H](CO)[C@@H](O)[C@H](N)[C@H]3O)[C@H](N)C[C@@H]2N)[C@H](O)[C@@H](O)[C@@H]1O [Kanamycin] | 40 | 80 | 80 | – | – | – | – | – | – | – | – | – | – | – | – | – | – | – | – | – | MIC of silver in the presence of different antibiotics (ECL-2: E. cloacae 2301# [1]): 160 µM; MIC of silver in the presence of different antibiotics [2]: 160 µM |
| C[C@@H](O)[C@H]1C(=O)N2C(C(=O)O)=C(S[C@@H]3CN[C@H](C(=O)N(C)C)C3)[C@H](C)[C@H]12 [Meropenem] | – | – | – | S | S | S | S | S | S | R | R | S | S | R | R | R | R | R | R | R/S | – |
| CCN1CCN(C(=O)N[C@@H](C(=O)N[C@@H]2C(=O)N3[C@@H]2SC(C)(C)[C@@H]3C(=O)O)c2ccccc2)C(=O)C1=O [Piperacillin] | – | – | – | R | R | S | S | R | R | R/S | R/S | R | R | R | R | R | R | R | R | R | – |
| C[C@]1(Cn2ccnn2)[C@H](C(=O)O)N2C(=O)C[C@H]2S1(=O)=O [Tazobactam] | – | – | – | S | S | S | S | R | R | R/S | R/S | R/S | S | R | R | R | R | R | R | R | – |
| CN(C)[C@@H]1C(O)=C(C(N)=O)C(=O)[C@@]2(O)C(O)=C3C(=O)c4c(O)cccc4[C@@](C)(O)[C@H]3C[C@@H]12 [Tetracycline] | 80 | 80 | 80 | R | R | R | S | – | – | R | R | S | R | R | R | R | R | – | R | R | – |
| Gentamicin | 40 | 40 | 80 | S | S | S | S | R | R | S | S | R | R | R | R | R | R | R | R | R | Antibacterial effect as MIC of antibiotic and silver (wild type E. coli DHB4; listed as head Silver (μM) 0): 40 µM; Antibacterial effect as MIC of antibiotic and silver (wild type E. coli DHB4; listed as head Silver (μM) 1): 20 µM; Antibacterial effect as MIC of antibiotic and silver (wild type E. coli DHB4; listed as head Silver (μM) 2): 2.5 µM; Antibacterial effect as MIC of antibiotic and silver (wild type E. coli DHB4; listed as head Silver (μM) 4): 1.25 µM; activity with silver on E. coli DHB4 growth (wild type E. coli DHB4; serial dilutions of Ag^+ and antibiotic): synergistic activity; degree of synergy with Ag^+ (Bliss model) (E. coli): synergistic combinations; MIC of silver in the presence of different antibiotics (ECL-2: E. cloacae 2301# [1]): 160 µM; MIC of silver in the presence of different antibiotics [2]: 160 µM; total GSH amount in cell extracts (GSH): slightly deplete |
